{
  "source": "PubChem BioAssay AID1259411",
  "about": "(Chemical Carcinogenesis Research Information System (CCRIS), 2018)",
  "test_system": "rodent carcinogenicity bioassays, tumor incidence",
  "experiment": "CCRIS carcinogenicity studies",
  "settings": "Dose: 0",
  "outline": "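NCI-built, expert-reviewed records of carcinogenicity and related test outcomes (mutagenicity, tumor promotion/inhibition) compiled from published and report sources, historical span 1985-2011, not updated.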",
  "note": "Activity calls are given as the source filed them. How the calls were made is not given here.",
  "data": [
    {"smiles": "CNC(=O)Oc1cccc2ccccc12", "values": [
      {"measurement": "carcinogen call", "setting": "Species: MOUSE, Strain/Sex: SWISS/FEMALE, Route: DERMAL, 100 MG/KG IN 100 µL ACETONE 3/WK FOR 52 WK (STUDY DURATION: 52 WK)", "result": "inactive; negative"},
      {"measurement": "carcinogen call", "setting": "Species: Mouse, Strain/Sex: CD-1/Female (70/group), Route: Oral, 100, 1,000, 8,000 ppm in feed for 104 wk, 100, 1,000, 8,000 ppm in feed for 104 wk, Tumor Site: Type of Lesion: BLOOD VESSELS: Hemangiosarcoma and hemangioma (high dose only). LIVER: Hepatocellular adenoma and carcinoma (high dose o", "result": "active; positive (purity 99.3%; study details not given in source; mtd may have been exc"},
      {"measurement": "carcinogen call", "setting": "Species: Mouse, Strain/Sex: CD-1/Male (70/group), Route: Oral, 100, 1,000, 8,000 ppm in feed for 104 wk, 100, 1,000, 8,000 ppm in feed for 104 wk, Tumor Site: Type of Lesion: BLOOD VESSELS: Hemangiosarcoma and hemangioma (all doses). KIDNEY: Renal tubular cell adenoma and carcinoma (high dose o", "result": "active; positive (purity 99.3%; study details not given in source; neoplastic lesions co"},
      {"measurement": "carcinogen call", "setting": "Species: RAT, Strain/Sex: SWISS, Route: GAVAGE, 30 MG/KG BW, 1/D FOR UP TO 22 MO, Tumor Site: Type of Lesion: INTESTINES: FIBROSARCOMA, BONE: OSTEOSARCOMA", "result": "active; positive"},
      {"measurement": "carcinogen call", "setting": "Species: Rat, Strain/Sex: Sprague-Dawley/Male (50/control and high-dose group and 40 per low-and mid-dose group), Route: Oral, 250, 1,500, 7,500 ppm in feed for 104 wk, 250, 1,500, 7,500 ppm in feed for 104 wk, Tumor Site: Type of Lesion: URINARY BLADDER: papilloma and carcinoma at highest dose. KIDNEY: one transitional cell carcinoma. LIVER: adenoma. THYRO", "result": "active; positive at the high dose level (purity 99%; study details not given in source)"}
    ]},
    {"smiles": "O=C(O)CC[N+](=O)[O-]", "values": [
      {"measurement": "carcinogen call", "setting": "Species: MOUSE, Strain/Sex: B6C3F1/FEMALE, Route: GAVAGE, 0.375, 0.75 MG/ANIMAL/DAY FOR 104 WK (STUDY DURATION: 104-105 WK), 0.375, 0.75 MG/ANIMAL/DAY FOR 104 WK (STUDY DURATION: 104-105 WK)", "result": "inactive; negative"},
      {"measurement": "carcinogen call", "setting": "Species: MOUSE, Strain/Sex: B6C3F1/MALE, Route: GAVAGE, 0.375, 0.75 MG/ANIMAL/DAY FOR 104 WK (STUDY DURATION: 104-105 WK), 0.375, 0.75 MG/ANIMAL/DAY FOR 104 WK (STUDY DURATION: 104-105 WK)", "result": "inactive; negative"},
      {"measurement": "carcinogen call", "setting": "Species: RAT, Strain/Sex: F344/FEMALE, Route: GAVAGE, 0.6, 1.2 MG/ANIMAL/DAY FOR 110 WK (STUDY DURATION: 111 WK), 0.6, 1.2 MG/ANIMAL/DAY FOR 110 WK (STUDY DURATION: 111 WK)", "result": "inactive; negative"},
      {"measurement": "carcinogen call", "setting": "Species: RAT, Strain/Sex: F344/MALE, Route: GAVAGE, 0.425, 0.85 MG/ANIMAL/DAY FOR 110 WK (STUDY DURATION: 111 WK), 0.425, 0.85 MG/ANIMAL/DAY FOR 110 WK (STUDY DURATION: 111 WK), Tumor Site: Type of Lesion: LIVER: HEPATOCELLULAR NEOPLASM, PANCREAS: ISLET CELL ADENOMA", "result": "equivocal"}
    ]},
    {"smiles": "C=CCO", "values": [
      {"measurement": "carcinogen call", "setting": "Species: HAMSTER, Strain/Sex: SYRIAN/MALE, Route: GAVAGE, 2 MG/WK FOR 60 WK (STUDY DURATION: 92 WK)", "result": "inactive; negative"},
      {"measurement": "carcinogen call", "setting": "Species: RAT, Strain/Sex: F344/FEMALE, Route: ORAL, 300 MG/L IN DRINKING WATER 5 D/WK FOR 100 WK (STUDY DURATION: 130 WK)", "result": "inactive; negative"},
      {"measurement": "carcinogen call", "setting": "Species: RAT, Strain/Sex: F344/MALE, Route: ORAL, 300 MG/L IN DRINKING WATER 5 D/WK FOR 100 WK (STUDY DURATION: 130 WK)", "result": "inactive; negative"}
    ]},
    {"smiles": "O=C(Nc1ccc([N+](=O)[O-])cc1Cl)c1cc(Cl)ccc1O", "values": [
      {"measurement": "carcinogen call", "setting": "Species: MOUSE, Strain/Sex: B6C3F1/FEMALE, Route: ORAL, 274, 549 PPM IN DIET FOR 78 WK (STUDY DURATION: 91-92 WK), 274, 549 PPM IN DIET FOR 78 WK (STUDY DURATION: 91-92 WK)", "result": "inactive; negative"},
      {"measurement": "carcinogen call", "setting": "Species: RAT, Strain/Sex: OSBORNE-MENDEL/FEMALE, Route: ORAL, 14216, 28433 PPM IN DIET FOR 78 WK (STUDY DURATION: 110-111 WK), 14216, 28433 PPM IN DIET FOR 78 WK (STUDY DURATION: 110-111 WK), Tumor Site: Type of Lesion: MAMMARY GLAND: ADENOCARCINOMA, STOMACH: CARCINOMA", "result": "equivocal"},
      {"measurement": "carcinogen call", "setting": "Species: RAT, Strain/Sex: OSBORNE-MENDEL/MALE, Route: ORAL, 14216, 28433 PPM IN DIET FOR 78 WK (STUDY DURATION: 110-111 WK), 14216, 28433 PPM IN DIET FOR 78 WK (STUDY DURATION: 110-111 WK)", "result": "inactive; negative"}
    ]},
    {"smiles": "CCN(CCO)N=O", "values": [
      {"measurement": "carcinogen call", "setting": "Species: HAMSTER, Strain/Sex: SYRIAN/MALE, Route: ORAL, 1000, 2000 PPM IN DIET FOR 2 WK (STUDY DURATION: 30 WK), 1000, 2000 PPM IN DIET FOR 2 WK (STUDY DURATION: 30 WK)", "result": "inactive; negative"},
      {"measurement": "carcinogen call", "setting": "Species: MOUSE, Strain/Sex: BALB/C/MALE, Route: ORAL, 1000, 2000 PPM IN DRINKING WATER FOR 2 WK (STUDY DURATION: 52 WK), 1000, 2000 PPM IN DRINKING WATER FOR 2 WK (STUDY DURATION: 52 WK), Tumor Site: Type of Lesion: LUNG: TUMOR", "result": "active; positive"},
      {"measurement": "carcinogen call", "setting": "Species: MOUSE, Strain/Sex: BALB/MALE, Route: ORAL, 1000, 2000 PPM IN DIET FOR 2 WK (STUDY DURATION: 30 WK), 1000, 2000 PPM IN DIET FOR 2 WK (STUDY DURATION: 30 WK), Tumor Site: Type of Lesion: LUNG: TUMOR", "result": "active; positive"},
      {"measurement": "carcinogen call", "setting": "Species: MOUSE, Strain/Sex: STRAIN-A/MALE, Route: ORAL, 1000, 2000 PPM IN DIET FOR 2 WK (STUDY DURATION: 30 WK), 1000, 2000 PPM IN DIET FOR 2 WK (STUDY DURATION: 30 WK), Tumor Site: Type of Lesion: LIVER: TUMOR, LUNG: TUMOR", "result": "active; positive"},
      {"measurement": "carcinogen call", "setting": "Species: RAT, Strain/Sex: F344/MALE, Route: ORAL, 1000 PPM IN DIET FOR 2 WK (STUDY DURATION: 30 WK)", "result": "inactive; negative"},
      {"measurement": "carcinogen call", "setting": "Species: RAT, Strain/Sex: WISTAR/FEMALE, Route: ORAL, 1000 PPM IN DIET FOR 2 WK (STUDY DURATION: 30 WK), Tumor Site: Type of Lesion: KIDNEY: RENAL CELL TUMOR", "result": "active; positive"},
      {"measurement": "carcinogen call", "setting": "Species: RAT, Strain/Sex: WISTAR/MALE, Route: ORAL, 1000, 2000 PPM IN DRINKING WATER FOR 2 WK (STUDY DURATION: 52 WK), 1000, 2000 PPM IN DRINKING WATER FOR 2 WK (STUDY DURATION: 52 WK), Tumor Site: Type of Lesion: KIDNEY: TUMOR", "result": "active; positive"},
      {"measurement": "carcinogen call", "setting": "Species: RAT, Strain/Sex: WISTAR/MALE, Route: ORAL, 1000 PPM IN DIET FOR 2 WK (STUDY DURATION: 30 WK), Tumor Site: Type of Lesion: KIDNEY: RENAL CELL TUMOR, LIVER: TUMOR", "result": "active; positive"},
      {"measurement": "carcinogen call", "setting": "Species: RAT, Strain/Sex: WISTAR/MALE, Route: ORAL, 1000 PPM IN DRINKING WATER FOR 2 WK (STUDY DURATION: 30 WK), Tumor Site: Type of Lesion: KIDNEY: RENAL CELL TUMOR", "result": "active; positive"}
    ]},
    {"smiles": "CC(C)N=C=NC(C)C", "values": [
      {"measurement": "carcinogen call", "setting": "Species: Mouse, Strain/Sex: B6C3F1/Female (50/Group), Route: Dermal, 10, 20, 40 mg/kg in anhydrous ethanol 5 d/wk for 2 yr, 10, 20, 40 mg/kg in anhydrous ethanol 5 d/wk for 2 yr", "result": "inactive; negative"},
      {"measurement": "carcinogen call", "setting": "Species: Mouse, Strain/Sex: B6C3F1/Male (50/Group), Route: Dermal, 10, 20, 40 mg/kg in anhydrous ethanol 5 d/wk for 2 yr, 10, 20, 40 mg/kg in anhydrous ethanol 5 d/wk for 2 yr", "result": "inactive; negative"},
      {"measurement": "carcinogen call", "setting": "Species: Rat, Strain/Sex: F344/N/Female (50/Group), Route: Dermal, 10, 20, 40 mg/kg in anhydrous ethanol 5 d/wk for 2 yr, 10, 20, 40 mg/kg in anhydrous ethanol 5 d/wk for 2 yr", "result": "inactive; negative"},
      {"measurement": "carcinogen call", "setting": "Species: Rat, Strain/Sex: F344/N/Male (50/Group), Route: Dermal, 10, 20, 40 mg/kg in anhydrous ethanol 5 d/wk for 2 yr, 10, 20, 40 mg/kg in anhydrous ethanol 5 d/wk for 2 yr", "result": "inactive; negative"}
    ]},
    {"smiles": "CC(CNN)c1ccccc1", "note": "(configuration not stated)", "values": [
      {"measurement": "carcinogen call", "setting": "Species: MOUSE, Strain/Sex: SWISS/FEMALE, Route: ORAL, 156, 312 PPM IN DRINKING WATER DAILY FOR LIFE (STUDY DURATION: 120-140 WK), 156, 312 PPM IN DRINKING WATER DAILY FOR LIFE (STUDY DURATION: 120-140 WK)", "result": "inactive; negative"},
      {"measurement": "carcinogen call", "setting": "Species: MOUSE, Strain/Sex: SWISS/MALE, Route: ORAL, 156, 312 PPM IN DRINKING WATER DAILY FOR LIFE (STUDY DURATION: 120-140 WK), 156, 312 PPM IN DRINKING WATER DAILY FOR LIFE (STUDY DURATION: 120-140 WK)", "result": "inactive; negative"}
    ]},
    {"smiles": "CNC(=O)Oc1ccccc1OC(C)C", "values": [
      {"measurement": "carcinogen call", "setting": "Species: MOUSE, Strain/Sex: SWISS/FEMALE, Route: DERMAL, 100 MG/KG BW IN 100 µL ACETONE 3/WK FOR 52 WK (STUDY DURATION: 52 WK)", "result": "inactive; negative"},
      {"measurement": "carcinogen call", "setting": "Species: MOUSE, Strain/Sex: SWISS/MALE, Route: DERMAL, 100 MG/KG BW IN 100 µL ACETONE 3/WK FOR 52 WK (STUDY DURATION: 52 WK)", "result": "inactive; negative"}
    ]}
  ]
}
